No end group written: not given here.
Tests used:
[1] = test system: fractures in postmenopausal osteoporosis; details: cited from earlier work
[2] = test system: ovariectomized induced bone loss; test: Ovariectomized induced bone loss in aged rats, 6 week study; assay type: in vivo, female Sprague Dawley rats; details: 6 weeks, in comparison to the untreated controls
Description: The following is a protocol suitable to test whether GLP-2A at 250 μg/kg s.c. twice daily can inhibit ovariectomized induced bone loss in aged rats.
• Test articles: GLP-2 analogue (Gly2)GLP-2: […]OH. • Vehicle: 0.5% gelatin/PBS (degassed) Gelatin A: Cat. No. 325910, batch no. 273622 (Unikem, Copenhagen, Denmark). PBS: Dubecco's Phosphate buffered saline (BioWhitaker cat.no.BE17-512F) • Positive control: 17β-estradiol pellet 0.5 mg/60 days release implanted subcutaneous (SE-121 Innovative Research of America) A dose of 250 μg/kg is administered by subcutaneous injections twice daily (10-12 hours apart). The injection site will vary according to the injection scheme. The dose is calculated as follow: the weight ofthe rat in kg=the dose in ml; e.g. 0.301kg=0.30 ml Experimental System: The study is performed in 50 female Sprague Dawley rats in 4 groups each of 12 or 13 rats. Surgery: • The rats are anaesthetized with Hypnorm-Domicum (1 part Hypnorm+1 part Dormicum+2 part sterile dI water. The rats are given 0.15 ml/100 g body weight). Ovariectomy (OVX) or sham operations are performed via a midline incision in the back of the rats. […] The wet weight and length of the small intestine and the colon will be recorded. […] Bones are assessed by PQCT, trabecular strength and histomorphologic analysis.

GIP = test: Total GIP level (antiserum R65); assay type: in vivo, human; details: oral 75 g fructose
Description: (§1) In these Examples, hematology and serum chemistry including glucose were measured using an auto analyzer (Vitros). Serum […] was measured by IRMA (Coat-A-Count®, DPC, Los Angeles, Calif.). Serum C-telopeptide fragments of collagen type I degradation (S-CTX) were measured by ELISA, Serum CrossLaps™ assay (Osteometer BioTech A/S—Denmark). Serum osteocalcin was determined by ELISA, an assay which determines the N-terminal mid segment of the molecule. Serum insulin and c-peptide were both assessed by RIA (Coat-A-Count® for insulin and Double Antibody C-peptide for c-peptide both DPC, Los Angeles, Calif.). Total GIP was measured using the C-terminally directed antiserum R65, which reacts with the intact GIP (1-42) and the N-terminally truncated metabolite, GIP (3-42) (Krarup T, Holst J J 1984 The heterogeneity of gastric inhibitory polypeptide in porcine and human gastrointestinal mucosa evaluated with five different antisera. Regul Pept 9:35-46. ). GLP-2 was measured with a N-terminal specific antiserum code no. 92160, measuring only GLP-2 with an intact N-terminus. GLP-1 in plasma samples was measured using a RIA assay specific for the C-terminus of the GLP-1 molecule, using standards of synthetic GLP-1 (7-36) amide and antiserum no. […] GLP-1 is measured in Example 1 as a marker for the effect of the tested materials on GLP-2 levels. […]

S-CTX (bone resorption) = test: Serum S-CTX (Serum CrossLaps ELISA) as marker of bone resorption in human subjects; assay type: in vivo
Description: as §1

GLP-1 = test: Plasma GLP-1 level (RIA), in Examples 1 and 2 as marker for GLP-2; assay type: in vivo, human; details: after 2 hours, compared to the baseline of 100% at T0; oral 75 g fructose
Description: as §1

[3] = in vivo; cited from earlier work
clinical = details: both sexes, human, in vivo, sc
Description: as §1

Molecule: CC[C@H](C)[C@H](NC(=O)[C@H](CCC(=O)O)NC(=O)[C@H](CO)NC(=O)[C@@H](NC(=O)[C@@H](N)CO)C(C)C)C(=O)N[C@@H](CCC(N)=O)C(=O)N[C@@H](CC(C)C)C(=O)N[C@@H](CCSC)C(=O)N[C@@H](Cc1cnc[nH]1)C(=O)N[C@@H](CC(N)=O)C(=O)N[C@@H](CC(C)C)C(=O)NCC(=O)N[C@@H](CCCCN)C(=O)N[C@@H](Cc1cnc[nH]1)C(=O)N[C@@H](CC(C)C)C(=O)N[C@@H](CC(N)=O)C(=O)N[C@@H](CO)C(=O)N[C@@H](CCSC)C(=O)N[C@@H](CCC(=O)O)C(=O)N[C@@H](CCCN=C(N)N)C(=O)N[C@H](C(=O)N[C@@H](CCC(=O)O)C(=O)N[C@@H](Cc1c[nH]c2ccccc12)C(=O)N[C@@H](CC(C)C)C(=O)N[C@@H](CCCN=C(N)N)C(=O)N[C@@H](CCCCN)C(=O)N[C@@H](CCCCN)C(=O)N[C@@H](CC(C)C)C(=O)N[C@@H](CCC(N)=O)C(=O)N[C@@H](CC(=O)O)C(=O)N[C@H](C(=O)N[C@@H](Cc1cnc[nH]1)C(=O)N[C@@H](CC(N)=O)C(=O)N[C@@H](Cc1ccccc1)C(=O)O)C(C)C)C(C)C [teriparatide]
- effect on new non-vertebral fractures ([1]; by the end of the 21-month treatment period): −35%
- decrease in occurrence of new vertebral fractures ([1]; subcutaneous daily dose 20 μg, Caucasian women (70 years of age)): 65%
- reduction of moderate-to-severe fractures ([1]; subcutaneous daily dose 20 μg): 90%
- reduction of multiple vertebral fractures ([1]; subcutaneous daily dose 20 μg): 77%

Molecule: C[C@]12CC[C@@H]3c4ccc(O)cc4CC[C@H]3[C@@H]1CC[C@@H]2O [17β-estradiol]
- protection against bone density loss following the OVX procedure [2]: protected against bone density loss

Molecule: O=C(CO)[C@@H](O)[C@H](O)[C@H](O)CO [Oral fructose, fructose]
- level of GIP (GIP): almost maintained at baseline
- reduction in S-CTX (S-CTX (bone resorption); after 2 hours, oral 75 g fructose in 300 ml water, fasted healthy women and men): 36%
- level of GLP-2 (measured as GLP-1) (GLP-1): 220%

Molecule: PTH: parathyroid hormone treatment (teriparatide and related compounds) discussed in the cited studies
- hypercalcemia and related symptoms, share of treated individuals [3]: about 11%

Molecule: CC[C@H](C)[C@H](NC(=O)[C@H](Cc1ccccc1)NC(=O)[C@H](CC(=O)O)NC(=O)[C@H](CCCNC(=N)N)NC(=O)[C@H](C)NC(=O)[C@H](C)NC(=O)[C@H](CC(C)C)NC(=O)[C@H](CC(N)=O)NC(=O)[C@H](CC(=O)O)NC(=O)[C@H](CC(C)C)NC(=O)[C@@H](NC(=O)[C@@H](NC(=O)[C@H](CC(N)=O)NC(=O)[C@H](CCSC)NC(=O)[C@H](CCC(=O)O)NC(=O)[C@H](CC(=O)O)NC(=O)[C@H](CO)NC(=O)[C@H](Cc1ccccc1)NC(=O)[C@H](CO)NC(=O)CNC(=O)[C@H](CC(=O)O)NC(=O)[C@H](C)NC(=O)[C@@H](N)Cc1c[nH]cn1)[C@@H](C)O)[C@@H](C)CC)C(=O)N[C@@H](CC(N)=O)C(=O)N[C@@H](Cc1c[nH]c2ccccc12)C(=O)N[C@@H](CC(C)C)C(=O)N[C@H](C(=O)N[C@@H](CCC(N)=O)C(=O)N[C@H](C(=O)N[C@@H](CCCCN)C(=O)N[C@H](C(=O)N[C@H](C(=O)N[C@@H](CC(=O)O)C(=O)O)[C@@H](C)O)[C@@H](C)CC)[C@@H](C)O)[C@@H](C)CC [GLP-2]
- reduction in S-CTX (S-CTX (bone resorption); after 3 hours, subcutaneous bolus injection of 400 μg, healthy women and men): 35%
- Tmax (clinical): 1 h

Molecule: His-Gly-Asp-Gly-Ser-Phe-Ser-Asp-Glu-Met-Asn-Thr-Ile-Leu-Asp-Asn-Leu-Ala-Ala-Arg-Asp-Phe-Ile-Asn-Trp-Leu-Ile-Gln-Thr-Lys-Ile-Thr-Asp-OH (HGDGSFSDEMNTILDNLAARDFINWLIQTKITD-OH) [(Gly2)GLP-2]
- protection against bone density loss following the OVX procedure [2]: protected against bone density loss
